pIC50: −log10 of the molar value. Read-outs that look alike come from different tables or passages of the source.
Key:
BRSK2 = biological target: T1, BRSK2 (Homo sapiens, UniProt Q8IWQ3); assay: biochemical; design: KINOMEscan scanMAX competition binding, DNA-tagged kinases, qPCR read-out, percent control at 300 nM
T1 sequence (Q8IWQ3 1-736): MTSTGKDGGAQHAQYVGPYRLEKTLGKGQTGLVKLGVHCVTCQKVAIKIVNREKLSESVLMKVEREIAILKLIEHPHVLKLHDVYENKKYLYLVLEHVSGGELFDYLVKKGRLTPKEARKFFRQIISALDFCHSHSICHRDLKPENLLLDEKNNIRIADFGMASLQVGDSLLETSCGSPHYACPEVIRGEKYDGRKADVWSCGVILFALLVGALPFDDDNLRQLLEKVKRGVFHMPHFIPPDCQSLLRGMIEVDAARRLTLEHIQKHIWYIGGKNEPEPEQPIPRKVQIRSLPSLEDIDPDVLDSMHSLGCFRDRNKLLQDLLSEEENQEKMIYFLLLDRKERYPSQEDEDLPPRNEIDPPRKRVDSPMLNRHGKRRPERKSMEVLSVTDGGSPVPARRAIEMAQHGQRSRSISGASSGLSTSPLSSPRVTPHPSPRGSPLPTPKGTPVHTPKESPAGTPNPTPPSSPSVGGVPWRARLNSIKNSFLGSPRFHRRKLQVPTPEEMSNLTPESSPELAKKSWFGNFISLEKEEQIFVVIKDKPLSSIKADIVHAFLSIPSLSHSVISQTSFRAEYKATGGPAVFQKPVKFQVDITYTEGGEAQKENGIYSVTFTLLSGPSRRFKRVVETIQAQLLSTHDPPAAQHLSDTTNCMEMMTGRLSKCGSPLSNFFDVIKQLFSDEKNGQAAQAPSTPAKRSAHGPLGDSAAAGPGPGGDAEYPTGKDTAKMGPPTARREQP

EPHA7 = EPHA7 (Homo sapiens, UniProt Q15375); assay: biochemical; design: KINOMEscan scanMAX competition binding, DNA-tagged kinases, qPCR read-out, percent control at 300 nM
PDGFRB = PDGFRB (Homo sapiens, UniProt P09619); assay: biochemical; design: KINOMEscan scanMAX competition binding, DNA-tagged kinases, qPCR read-out, percent control at 300 nM
PDGFRB, sequence (P09619 whole entry): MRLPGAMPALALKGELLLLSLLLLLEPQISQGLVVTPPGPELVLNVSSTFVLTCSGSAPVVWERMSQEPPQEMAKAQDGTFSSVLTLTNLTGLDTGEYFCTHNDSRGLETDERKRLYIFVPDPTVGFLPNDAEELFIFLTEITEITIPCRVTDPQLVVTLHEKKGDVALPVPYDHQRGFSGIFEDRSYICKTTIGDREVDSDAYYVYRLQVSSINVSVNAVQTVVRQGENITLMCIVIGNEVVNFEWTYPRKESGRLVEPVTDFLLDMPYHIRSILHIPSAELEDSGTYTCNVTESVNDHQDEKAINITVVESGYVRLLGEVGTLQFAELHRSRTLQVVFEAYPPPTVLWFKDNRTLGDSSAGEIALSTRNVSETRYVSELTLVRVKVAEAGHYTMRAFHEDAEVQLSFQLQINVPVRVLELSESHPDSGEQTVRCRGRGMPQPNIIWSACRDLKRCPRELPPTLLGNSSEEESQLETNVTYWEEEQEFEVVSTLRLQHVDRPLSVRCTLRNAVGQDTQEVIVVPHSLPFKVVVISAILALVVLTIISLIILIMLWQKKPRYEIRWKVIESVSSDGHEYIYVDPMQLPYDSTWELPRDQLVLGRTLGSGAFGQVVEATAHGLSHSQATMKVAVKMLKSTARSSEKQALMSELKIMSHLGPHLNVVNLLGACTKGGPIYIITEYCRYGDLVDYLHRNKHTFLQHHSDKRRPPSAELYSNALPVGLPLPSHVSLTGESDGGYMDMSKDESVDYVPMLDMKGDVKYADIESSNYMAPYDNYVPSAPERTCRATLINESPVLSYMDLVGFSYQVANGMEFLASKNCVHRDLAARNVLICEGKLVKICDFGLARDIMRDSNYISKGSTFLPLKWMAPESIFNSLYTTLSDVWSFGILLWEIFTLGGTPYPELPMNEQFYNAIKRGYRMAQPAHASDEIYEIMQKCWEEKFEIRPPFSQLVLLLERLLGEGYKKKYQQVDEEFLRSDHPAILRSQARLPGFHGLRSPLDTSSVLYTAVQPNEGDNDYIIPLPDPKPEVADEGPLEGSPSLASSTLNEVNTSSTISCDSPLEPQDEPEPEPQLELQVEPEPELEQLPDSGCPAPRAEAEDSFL

PIM1 = PIM1 (Homo sapiens, UniProt P11309); assay: biochemical; design: KINOMEscan scanMAX competition binding, DNA-tagged kinases, qPCR read-out, percent control at 300 nM
FYN = FYN (Homo sapiens, UniProt P06241); assay: mobility shift assay (MSA)
LYNa = LYNa (Homo sapiens, UniProt P07948); assay: mobility shift assay (MSA)
LYNa, sequence (P07948 whole entry): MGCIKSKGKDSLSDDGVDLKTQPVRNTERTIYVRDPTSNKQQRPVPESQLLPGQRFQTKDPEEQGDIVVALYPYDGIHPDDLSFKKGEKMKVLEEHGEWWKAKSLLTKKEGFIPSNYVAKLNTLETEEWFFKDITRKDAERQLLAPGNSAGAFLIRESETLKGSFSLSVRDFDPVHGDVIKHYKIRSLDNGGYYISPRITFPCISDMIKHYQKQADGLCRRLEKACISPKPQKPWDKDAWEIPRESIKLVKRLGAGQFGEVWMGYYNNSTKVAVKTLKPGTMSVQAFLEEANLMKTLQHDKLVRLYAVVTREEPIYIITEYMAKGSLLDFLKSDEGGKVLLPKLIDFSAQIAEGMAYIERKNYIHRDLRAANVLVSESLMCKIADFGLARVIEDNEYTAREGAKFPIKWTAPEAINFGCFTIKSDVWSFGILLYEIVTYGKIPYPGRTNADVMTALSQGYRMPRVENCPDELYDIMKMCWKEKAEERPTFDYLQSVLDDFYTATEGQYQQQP

LCK = LCK (Homo sapiens, UniProt P06239); assay: mobility shift assay (MSA)
CSK = CSK (Homo sapiens, UniProt P41240); assay: mobility shift assay (MSA)
BLK = BLK (Homo sapiens, UniProt P51451); assay: Z'-Lyte kinase inhibition assay; format: biochemical; design: purchased Thermo Fisher Scientific (Invitrogen Z'-Lyte service); details: 60 min preincubation
BLK, sequence (P51451 whole entry): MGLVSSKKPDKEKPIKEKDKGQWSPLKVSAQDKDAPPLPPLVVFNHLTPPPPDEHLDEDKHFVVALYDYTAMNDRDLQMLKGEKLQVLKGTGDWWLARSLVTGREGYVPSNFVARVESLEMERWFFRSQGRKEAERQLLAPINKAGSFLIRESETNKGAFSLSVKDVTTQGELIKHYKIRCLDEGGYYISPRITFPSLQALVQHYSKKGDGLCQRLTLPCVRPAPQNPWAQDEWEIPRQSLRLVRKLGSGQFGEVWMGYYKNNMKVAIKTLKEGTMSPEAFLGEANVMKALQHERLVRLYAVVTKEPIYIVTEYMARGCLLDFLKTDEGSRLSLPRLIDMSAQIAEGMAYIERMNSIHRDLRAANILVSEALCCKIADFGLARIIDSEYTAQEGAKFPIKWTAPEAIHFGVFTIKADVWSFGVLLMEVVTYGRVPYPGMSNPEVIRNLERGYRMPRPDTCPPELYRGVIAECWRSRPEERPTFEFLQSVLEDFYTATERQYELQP
Procedure: In all the assays, each test compound was preincubated with peptide/kinase mixture or kinase/antibody mixture for 60 min at room temperature before adding the ATP solution or AlexaFluor labeled Tracer to initiate the 60-min incubation of the reactants.

MLK2 = biological target: T2, MLK2 (Homo sapiens, UniProt Q02779); assay: biochemical; design: KINOMEscan scanMAX competition binding, DNA-tagged kinases, qPCR read-out, percent control at 300 nM
T2 construct: gene MAP3K10
T2 sequence (Q02779 whole entry): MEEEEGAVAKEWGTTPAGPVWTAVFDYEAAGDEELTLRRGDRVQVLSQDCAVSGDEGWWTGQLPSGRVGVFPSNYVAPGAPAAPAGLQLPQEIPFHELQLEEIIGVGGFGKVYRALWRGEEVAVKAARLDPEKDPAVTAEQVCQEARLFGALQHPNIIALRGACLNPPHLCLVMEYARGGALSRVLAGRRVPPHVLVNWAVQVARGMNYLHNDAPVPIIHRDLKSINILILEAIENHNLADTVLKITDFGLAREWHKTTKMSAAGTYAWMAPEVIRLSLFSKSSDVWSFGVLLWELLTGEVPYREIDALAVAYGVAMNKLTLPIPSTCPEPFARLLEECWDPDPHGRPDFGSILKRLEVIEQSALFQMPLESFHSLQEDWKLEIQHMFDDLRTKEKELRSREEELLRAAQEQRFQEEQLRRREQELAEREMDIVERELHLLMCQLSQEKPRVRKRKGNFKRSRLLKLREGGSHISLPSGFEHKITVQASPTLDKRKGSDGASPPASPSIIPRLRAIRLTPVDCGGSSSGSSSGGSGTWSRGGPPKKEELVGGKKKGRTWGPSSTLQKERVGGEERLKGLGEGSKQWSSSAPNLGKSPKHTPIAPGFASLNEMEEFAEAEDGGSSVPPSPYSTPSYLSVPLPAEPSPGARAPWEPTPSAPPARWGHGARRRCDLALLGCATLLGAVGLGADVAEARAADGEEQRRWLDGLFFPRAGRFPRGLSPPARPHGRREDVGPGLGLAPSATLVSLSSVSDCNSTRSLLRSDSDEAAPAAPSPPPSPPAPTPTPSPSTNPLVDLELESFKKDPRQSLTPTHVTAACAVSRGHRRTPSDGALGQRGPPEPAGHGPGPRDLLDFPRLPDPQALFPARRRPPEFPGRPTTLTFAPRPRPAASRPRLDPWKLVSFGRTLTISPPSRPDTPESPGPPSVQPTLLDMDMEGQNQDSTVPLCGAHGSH

NEK1 = NEK1 (Homo sapiens, UniProt Q96PY6); assay: biochemical; design: KINOMEscan scanMAX competition binding, DNA-tagged kinases, qPCR read-out, percent control at 300 nM
NEK1, sequence (Q96PY6 whole entry): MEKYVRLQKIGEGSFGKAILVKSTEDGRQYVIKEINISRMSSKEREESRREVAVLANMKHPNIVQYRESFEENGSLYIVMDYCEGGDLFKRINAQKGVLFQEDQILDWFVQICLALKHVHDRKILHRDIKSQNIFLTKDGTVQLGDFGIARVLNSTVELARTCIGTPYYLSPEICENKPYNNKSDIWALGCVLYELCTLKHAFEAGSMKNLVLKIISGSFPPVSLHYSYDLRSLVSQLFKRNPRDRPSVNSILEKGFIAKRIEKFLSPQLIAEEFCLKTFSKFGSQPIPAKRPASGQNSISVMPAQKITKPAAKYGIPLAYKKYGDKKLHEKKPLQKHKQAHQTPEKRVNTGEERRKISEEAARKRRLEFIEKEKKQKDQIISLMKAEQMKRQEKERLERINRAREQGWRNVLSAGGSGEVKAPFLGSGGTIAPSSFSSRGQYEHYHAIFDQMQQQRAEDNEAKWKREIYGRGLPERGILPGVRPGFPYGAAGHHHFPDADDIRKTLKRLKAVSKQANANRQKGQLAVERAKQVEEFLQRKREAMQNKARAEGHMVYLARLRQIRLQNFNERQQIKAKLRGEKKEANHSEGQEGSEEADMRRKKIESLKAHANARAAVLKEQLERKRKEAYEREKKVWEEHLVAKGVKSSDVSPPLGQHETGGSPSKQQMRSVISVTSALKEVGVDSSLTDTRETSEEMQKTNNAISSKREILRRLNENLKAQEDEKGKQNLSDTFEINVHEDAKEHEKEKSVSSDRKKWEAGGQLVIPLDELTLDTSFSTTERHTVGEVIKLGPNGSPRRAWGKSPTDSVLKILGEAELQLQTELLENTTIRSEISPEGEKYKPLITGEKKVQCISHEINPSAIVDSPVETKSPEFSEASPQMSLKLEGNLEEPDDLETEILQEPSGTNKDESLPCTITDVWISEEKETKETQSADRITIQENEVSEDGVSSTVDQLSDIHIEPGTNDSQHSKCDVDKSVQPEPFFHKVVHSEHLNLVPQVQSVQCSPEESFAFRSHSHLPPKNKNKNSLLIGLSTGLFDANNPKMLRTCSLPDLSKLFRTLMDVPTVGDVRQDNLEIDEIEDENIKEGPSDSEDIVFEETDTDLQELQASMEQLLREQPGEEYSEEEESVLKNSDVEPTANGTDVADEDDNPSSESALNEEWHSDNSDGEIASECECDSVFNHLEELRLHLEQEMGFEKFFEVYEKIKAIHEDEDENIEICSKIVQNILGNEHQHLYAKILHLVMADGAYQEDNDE

[1] = biological target: T3, RSK3(Kin.Dom.2-C-terminal) (Homo sapiens, UniProt Q15349); assay: biochemical; design: KINOMEscan scanMAX competition binding, DNA-tagged kinases, qPCR read-out, percent control at 300 nM
T3 construct: gene RPS6KA2; Kin.Dom.2-C-terminal

DCAMKL3 = biological target: T4, DCAMKL3 (Homo sapiens, UniProt Q9C098); assay: biochemical; design: KINOMEscan scanMAX competition binding, DNA-tagged kinases, qPCR read-out, percent control at 300 nM
T4 construct: gene DCLK3
T4 sequence (Q9C098 whole entry): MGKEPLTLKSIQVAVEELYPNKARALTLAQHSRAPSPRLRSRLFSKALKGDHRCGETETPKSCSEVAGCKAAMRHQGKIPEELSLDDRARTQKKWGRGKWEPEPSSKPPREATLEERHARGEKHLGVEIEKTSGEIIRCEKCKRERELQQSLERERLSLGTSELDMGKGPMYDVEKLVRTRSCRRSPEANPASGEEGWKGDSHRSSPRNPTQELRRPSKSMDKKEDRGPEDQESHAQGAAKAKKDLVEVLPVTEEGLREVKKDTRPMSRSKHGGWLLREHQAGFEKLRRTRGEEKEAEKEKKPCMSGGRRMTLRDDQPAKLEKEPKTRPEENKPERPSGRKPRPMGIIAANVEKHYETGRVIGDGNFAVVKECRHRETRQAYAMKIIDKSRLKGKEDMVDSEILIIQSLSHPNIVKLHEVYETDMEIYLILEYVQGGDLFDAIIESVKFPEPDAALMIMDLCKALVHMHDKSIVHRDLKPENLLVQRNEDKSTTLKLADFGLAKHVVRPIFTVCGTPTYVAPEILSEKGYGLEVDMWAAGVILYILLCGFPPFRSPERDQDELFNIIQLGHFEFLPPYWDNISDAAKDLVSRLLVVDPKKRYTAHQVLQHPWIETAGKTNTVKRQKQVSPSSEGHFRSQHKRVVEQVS

TEC = biological target: T5, TEC (Homo sapiens, UniProt P42680); assay: KINOMEscan binding assay; design: purchased Eurofins DiscoverX (KINOMEscan scanMAX service)
T5 sequence (P42680 1-631): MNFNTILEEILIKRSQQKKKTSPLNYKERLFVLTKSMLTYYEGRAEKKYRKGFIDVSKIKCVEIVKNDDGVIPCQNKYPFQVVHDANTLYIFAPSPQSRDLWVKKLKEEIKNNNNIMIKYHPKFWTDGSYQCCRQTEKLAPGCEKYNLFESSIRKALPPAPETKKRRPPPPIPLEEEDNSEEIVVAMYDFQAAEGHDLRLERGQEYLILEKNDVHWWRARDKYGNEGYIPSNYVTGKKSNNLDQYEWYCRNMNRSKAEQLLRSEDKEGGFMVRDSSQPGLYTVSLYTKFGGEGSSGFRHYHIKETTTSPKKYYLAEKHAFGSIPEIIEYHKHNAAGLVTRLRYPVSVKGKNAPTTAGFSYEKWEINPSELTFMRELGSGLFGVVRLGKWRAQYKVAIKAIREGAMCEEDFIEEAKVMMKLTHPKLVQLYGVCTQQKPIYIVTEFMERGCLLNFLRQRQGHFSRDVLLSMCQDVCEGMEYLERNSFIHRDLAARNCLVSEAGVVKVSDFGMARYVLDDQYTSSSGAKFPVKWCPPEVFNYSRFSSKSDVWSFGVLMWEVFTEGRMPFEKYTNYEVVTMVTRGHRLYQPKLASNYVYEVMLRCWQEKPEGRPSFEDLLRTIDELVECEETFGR

[2] = read-out: Percent control / Acalabrutinib
[3] = read-out: Percent control / Ibrutinib
[4] = read-out: Percent control / Tirabrutinib
[5] = read-out: Percent control / Zanubrutinib

CC#CC(=O)N1CCC[C@H]1c1nc(-c2ccc(C(=O)Nc3ccccn3)cc2)c2c(N)nccn12 [Acalabrutinib] gave a remaining binding at 0.3 µM (BRSK2; [2]) of 94%, a remaining binding at 0.3 µM (EPHA7; [2]) of 99% and a remaining binding at 0.3 µM (PDGFRB; [2]) of 93%. It also gave a remaining binding at 0.3 µM (PIM1; [2]) of 94%, a pIC50 (FYN) of under 5.00 and a pIC50 (LYNa) of under 5.00. It also gave a pIC50 (LCK) of 5.28, a pIC50 (CSK) of 5.18 and a pIC50 (BLK) of 5.64.
Molecule C=CC(=O)N1CCC[C@@H](n2nc(-c3ccc(Oc4ccccc4)cc3)c3c(N)ncnc32)C1 [Ibrutinib] has a remaining binding at 0.3 µM (BRSK2; [3]) of 82%, a remaining binding at 0.3 µM (MLK2; [3]) of 90% and a remaining binding at 0.3 µM (NEK1; [3]) of 96%. For the same molecule, the remaining binding at 0.3 µM (PDGFRB; [3]) was 38% and the remaining binding at 0.3 µM [1, 3] was 90%.
In the case of CC#CC(=O)N1CC[C@@H](n2c(=O)n(-c3ccc(Oc4ccccc4)cc3)c3c(N)ncnc32)C1 [Tirabrutinib], the remaining binding at 0.3 µM (DCAMKL3; [4]) was 99%, the remaining binding at 0.3 µM (MLK2; [4]) was 77% and the remaining binding at 0.3 µM (PDGFRB; [4]) was 79%. The pIC50 (FYN) was 5.65, the pIC50 (LYNa) was 5.46 and the pIC50 (LCK) was 6.10. It also gave a pIC50 (CSK) of 6.35, an inhibition at 0.3 µM (TEC; 300 nM, read-out: inhibition of kinase binding (KINOMEscan)) of 92.2% and a pIC50 (BLK) of 5.89.
With C=CC(=O)N1CCC([C@@H]2CCNc3c(C(N)=O)c(-c4ccc(Oc5ccccc5)cc4)nn32)CC1 [Zanubrutinib] the remaining binding at 0.3 µM (BRSK2; [5]) was 81%, the remaining binding at 0.3 µM (DCAMKL3; [5]) was 100% and the remaining binding at 0.3 µM (EPHA7; [5]) was 97%. For the same molecule, the remaining binding at 0.3 µM (NEK1; [5]) was 54%, the remaining binding at 0.3 µM (PDGFRB; [5]) was 100% and the remaining binding at 0.3 µM (PIM1; [5]) was 73%. It also gave a remaining binding at 0.3 µM [1, 5] of 84% and a Percent control (TEC; kinase TEC (Entrez TEC)) of 20%.

Reference: publication PMC10004634 (PLOS ONE, 2023)
